Read-outs that look alike come from different tables or passages of the source.
Molecular target: T1, avidin (AV) (Gallus gallus, UniProt P02701)
T1 construct: purchased Calbiochem (La Jolla, CA)
Assay: Stopped-flow association kinetics of dye-labeled biotin probes binding to avidin (F(t), rF(t); Arrhenius plots/global fitting)
Set-up: ln(k) / dS+ / dG+ / Eon for BFl / b of the line y = m1x+b1: unit not given here
Conditions: for k(average): k (full value)
Experimental: These reactions were carried out in a buffered solution of 10 mM Tris-HCl, 100 mM KCl, 2.5 mM MgCl2 and 1 mM CaCl2 at pH 8 and only AV-BcO reactions included pH 9 and 10. The concentrations, after mixing, were of 20 nM of dye-labeled B7 probe and 260 nM, 520 nM or 1040 nM of AV; and 200 nM, 300 nM, 400 nM or 800 nM of SAV at temperatures of 10, 15, 20 and 25°C. The deglycosylation of AV (for comparative association reactions) was carried out using the provided standard protocol with endoglycosidase H [47], both with and without incubation of a denaturant solution (2% SDS and 1M 2-mercaptoethanol).
The reactions were collected with the SF instrument, described previously. The fluorescence signal was collected through a 520 nm interference filter (Oriel Corp., Stratford, CT) with a detector time constant and SF dead time of 1 μs and 1 ms, respectively. The excitation light was provided by the Coherent Ar^+ ion laser (described above) at 488 nm with […] of incident power on the reaction cuvette. The laser source was followed by the photo-elastic modulator described above with the axis oriented 45^o with respect to the electric vector of the incident light and with the half-wave modulation (50 kHz) set for 488 nm excitation. The demodulation circuitry following the photomultiplier provided a DC(t) and a rectified AC(t) which were converted to digital data by a high-speed digitizer (PCI-5122) from National Instruments (Austin, TX) with 14-bit resolution and 100 MHz bandwidth, through channels 0 and 1. The data acquisition was controlled by LabVIEW (Vr 8) software at a collection rate of 6120 data points/second and stored in spreadsheets. The AC(t) and DC(t) data were baseline corrected before obtaining the signal ratio (Eq 4) as a function of time (ρt).
The constant AGain is the instrumental amplitude gain and was evaluated by solving ρ(t) using the known steady state anisotropy (rss) of the complexes which is equivalent to the r(t) at t = ∞; and H, obtained from the equivalent grating factor (G) for the filters and photo multiplier tubes in the SF. For the probes used in here G was 0.82 and H = (1-G)/(1+G) = 0.099. Knowing Again and H, the AC(t) and DC(t) signals can be solved for r(t) and F(t) (Eqs 4 and 5) and the normalized fluorescence, F¯(t) , and corrected fluorescence anisotropy, rF¯(t), were obtained when F¯(0) and rF¯(0) were scaled to 1 at t = 0.
The F¯(t) (Eq 6) is equivalent to (I||) + 2 (I⊥) and proportional to quantum yield (QYi), molar absorptivity (εi) and to the formation or disappearance of the emitting species Xi(t); and rF¯(t) including the steady state anisotropies (rss) of each fluorescent species (Eq 7).
The possible reaction models were discriminated by the squared residuals of the observed and calculated association traces of both fluorescence and anisotropy fluorescence signals, F¯(t) and rF¯(t) , respectively.

T1 sequence (P02701 25-152): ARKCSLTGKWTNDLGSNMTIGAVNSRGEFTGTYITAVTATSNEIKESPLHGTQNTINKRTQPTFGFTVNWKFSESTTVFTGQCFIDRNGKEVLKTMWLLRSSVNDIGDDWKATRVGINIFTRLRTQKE

NC(CCCCNC(=O)CCCC[C@@H]1SC[C@@H]2NC(=O)N[C@@H]21)C(=O)NCCCCCNC(=O)c1ccc(-c2c3cc(F)c(=O)cc-3oc3cc(O)c(F)cc23)c(C(=O)O)c1 (stereo partly shown) [BcO, Oregon green 488 Biocytin]
kon fold slower than Green's 7 × 10^7 M^-1s^-1 (25°C and pH 8 vs 25°C and pH 5): 7.4 X | fold by which the SPR kon (ref 20) is slower than the kon of the probe (AV): ~ 5 X | b of the line y = m1x+b1 (AV 1, reacting with BcO): 40.2925 | slope, m of the line y = m1x+b1 (AV 1, reacting with BcO, x = 1/Temp): -7277.8 | kon by corrected fluorescence anisotropy rF(t) (AV-BcO, 10 °C, 260 nM): 2.7e+06 ± 100000 M⁻¹ s⁻¹ | kon (AV-BcO, 10 °C, 260 nM, read-out: kon by corrected fluorescence anisotropy rF(t)): 2.65e+06 M⁻¹ s⁻¹ | kon (AV-BcO, 10 °C, 260 nM, read-out: kon by fluorescence change F(t)): 2.4e+06 ± 100000 M⁻¹ s⁻¹ | kon (AV-BcO, 10 °C, 260 nM, read-out: kon by fluorescence change F(t), right block without spread): 2.42e+06 M⁻¹ s⁻¹ | kon by corrected fluorescence anisotropy rF(t) (AV-BcO, 10 °C, 520 nM): 2.7e+06 ± 100000 M⁻¹ s⁻¹ | kon (AV-BcO, 10 °C, 520 nM, read-out: kon by corrected fluorescence anisotropy rF(t)): 2.69e+06 M⁻¹ s⁻¹ | kon (AV-BcO, 10 °C, 520 nM, read-out: kon by fluorescence change F(t)): 2.6e+06 ± 200000 M⁻¹ s⁻¹ | kon (AV-BcO, 10 °C, 520 nM, read-out: kon by fluorescence change F(t), right block without spread): 2.61e+06 M⁻¹ s⁻¹ | kon by corrected fluorescence anisotropy rF(t) (AV-BcO, 10 °C, 1040 nM): 2.7e+06 ± 100000 M⁻¹ s⁻¹ | kon (AV-BcO, 10 °C, 1040 nM, read-out: kon by corrected fluorescence anisotropy rF(t)): 2.72e+06 M⁻¹ s⁻¹ | kon (AV-BcO, 10 °C, 1040 nM, read-out: kon by fluorescence change F(t)): 2.5e+06 ± 200000 M⁻¹ s⁻¹ | kon (AV-BcO, 10 °C, 1040 nM, read-out: kon by fluorescence change F(t), right block without spread): 2.52e+06 M⁻¹ s⁻¹ | kon (AV-BcO, 10 °C, average of F(t) and rF(t) at 260, 520, 1040 nM, read-out: kon, Average): 2.6e+06 M⁻¹ s⁻¹ | kon by corrected fluorescence anisotropy rF(t) (AV-BcO, 15 °C, 260 nM): 4e+06 ± 100000 M⁻¹ s⁻¹ | kon (AV-BcO, 15 °C, 260 nM, read-out: kon by corrected fluorescence anisotropy rF(t)): 4e+06 M⁻¹ s⁻¹ | kon (AV-BcO, 15 °C, 260 nM, read-out: kon by fluorescence change F(t)): 4.1e+06 ± 100000 M⁻¹ s⁻¹ | kon (AV-BcO, 15 °C, 260 nM, read-out: kon by fluorescence change F(t), right block without spread): 4.1e+06 M⁻¹ s⁻¹ | kon by corrected fluorescence anisotropy rF(t) (AV-BcO, 15 °C, 520 nM): 3.82e+06 ± 100000 M⁻¹ s⁻¹ | kon (AV-BcO, 15 °C, 520 nM, read-out: kon by corrected fluorescence anisotropy rF(t)): 3.82e+06 M⁻¹ s⁻¹ | kon (AV-BcO, 15 °C, 520 nM, read-out: kon by fluorescence change F(t)): 3.95e+06 ± 100000 M⁻¹ s⁻¹ | kon (AV-BcO, 15 °C, 520 nM, read-out: kon by fluorescence change F(t), right block without spread): 3.95e+06 M⁻¹ s⁻¹ | kon by corrected fluorescence anisotropy rF(t) (AV-BcO, 15 °C, 1040 nM): 4e+06 ± 200000 M⁻¹ s⁻¹ | kon (AV-BcO, 15 °C, 1040 nM, read-out: kon by corrected fluorescence anisotropy rF(t)): 4e+06 M⁻¹ s⁻¹ | kon (AV-BcO, 15 °C, 1040 nM, read-out: kon by fluorescence change F(t)): 3.9e+06 ± 200000 M⁻¹ s⁻¹ | kon (AV-BcO, 15 °C, 1040 nM, read-out: kon by fluorescence change F(t), right block without spread): 3.9e+06 M⁻¹ s⁻¹ | kon (AV-BcO, 15 °C, average of F(t) and rF(t) at 260, 520, 1040 nM, read-out: kon, Average): 4e+06 M⁻¹ s⁻¹ | kon (AV-BcO, 20 °C, 260 nM, read-out: kon by corrected fluorescence anisotropy rF(t)): 5.9e+06 M⁻¹ s⁻¹ | kon (AV-BcO, 20 °C, 260 nM, read-out: kon by fluorescence change F(t)): 5.7e+06 ± 100000 M⁻¹ s⁻¹ | kon (AV-BcO, 20 °C, 260 nM, read-out: kon by fluorescence change F(t), right block without spread): 5.7e+06 M⁻¹ s⁻¹ | kon by corrected fluorescence anisotropy rF(t) (AV-BcO, 20 °C, 520 nM): 5.8e+06 ± 100000 M⁻¹ s⁻¹ | kon (AV-BcO, 20 °C, 520 nM, read-out: kon by corrected fluorescence anisotropy rF(t)): 5.8e+06 M⁻¹ s⁻¹ | kon (AV-BcO, 20 °C, 520 nM, read-out: kon by fluorescence change F(t)): 5.9e+06 ± 300000 M⁻¹ s⁻¹ | kon (AV-BcO, 20 °C, 520 nM, read-out: kon by fluorescence change F(t), right block without spread): 5.9e+06 M⁻¹ s⁻¹ | kon by corrected fluorescence anisotropy rF(t) (AV-BcO, 20 °C, 1040 nM): 6.1e+06 ± 100000 M⁻¹ s⁻¹ | kon (AV-BcO, 20 °C, 1040 nM, read-out: kon by corrected fluorescence anisotropy rF(t)): 6.1e+06 M⁻¹ s⁻¹ | kon (AV-BcO, 20 °C, 1040 nM, read-out: kon by fluorescence change F(t)): 6e+06 ± 100000 M⁻¹ s⁻¹ | kon (AV-BcO, 20 °C, 1040 nM, read-out: kon by fluorescence change F(t), right block without spread): 6e+06 M⁻¹ s⁻¹ | kon (AV-BcO, 20 °C, average of F(t) and rF(t) at 260, 520, 1040 nM, read-out: kon, Average): 5.9e+06 M⁻¹ s⁻¹ | kon (AV-BcO, 25 °C, 260 nM, read-out: kon by corrected fluorescence anisotropy rF(t)): 9.5e+06 M⁻¹ s⁻¹ | kon (AV-BcO, 25 °C, 260 nM, read-out: kon by fluorescence change F(t)): 9.5e+06 ± 100000 M⁻¹ s⁻¹ | kon (AV-BcO, 25 °C, 260 nM, read-out: kon by fluorescence change F(t), right block without spread): 9.5e+06 M⁻¹ s⁻¹ | kon (AV-BcO, 25 °C, 520 nM, read-out: kon by corrected fluorescence anisotropy rF(t)): 9.5e+06 M⁻¹ s⁻¹ | kon (AV-BcO, 25 °C, 520 nM, read-out: kon by fluorescence change F(t)): 9.5e+06 ± 300000 M⁻¹ s⁻¹ | kon (AV-BcO, 25 °C, 520 nM, read-out: kon by fluorescence change F(t), right block without spread): 9.5e+06 M⁻¹ s⁻¹ | kon by corrected fluorescence anisotropy rF(t) (AV-BcO, 25 °C, 1040 nM): 9.4e+06 ± 200000 M⁻¹ s⁻¹ | kon (AV-BcO, 25 °C, 1040 nM, read-out: kon by corrected fluorescence anisotropy rF(t)): 9.4e+06 M⁻¹ s⁻¹ | kon (AV-BcO, 25 °C, 1040 nM, read-out: kon by fluorescence change F(t)): 9.7e+06 ± 300000 M⁻¹ s⁻¹ | kon (AV-BcO, 25 °C, 1040 nM, read-out: kon by fluorescence change F(t), right block without spread): 9.7e+06 M⁻¹ s⁻¹ | kon (AV-BcO, 25 °C, average of F(t) and rF(t) at 260, 520, 1040 nM, read-out: kon, Average): 9.5e+06 M⁻¹ s⁻¹ | Ea^Forward (AV, pH 8): 60.2 ± 2.5 kJ/mol | ln(k) (AV, pH8, 10 (283.15 K)): 14.8 | k(average) (AV, pH8, 10 (283.15 K)): 2.60E+06 | kon (AV, pH8, 10 (283.15 K), k (scaled)): 2.6e+06 M⁻¹ s⁻¹ | ln(k) (AV, pH8, 15 (288.15 K)): 15.2 | k(average) (AV, pH8, 15 (288.15 K)): 3.90E+06 | kon (AV, pH8, 15 (288.15 K), k (scaled)): 3.9e+06 M⁻¹ s⁻¹ | ln(k) (AV, pH8, 20 (293.15 K)): 15.6 | k(average) (AV, pH8, 20 (293.15 K)): 5.90E+06 | kon (AV, pH8, 20 (293.15 K), k (scaled)): 5.9e+06 M⁻¹ s⁻¹ | ln(k) (AV, pH8, 25 (298.15 K)): 16.1 | k(average) (AV, pH8, 25 (298.15 K)): 9.50E+06 | kon (AV, pH8, 25 (298.15 K), k (scaled)): 9.5e+06 M⁻¹ s⁻¹ | ΔG^ǂ (AV, pH 8, forward): 19.2 ± 1.3 kJ/mol | ΔS^ǂ (AV, pH 8, forward): 33.0 ± 2.5 cal/°K·mol | Ea^Forward (AV, pH 9): 58.2 ± 2.9 kJ/mol | ln(k) (AV, pH 9, 10 (283.15 K)): 14.7 | k(average) (AV, pH 9, 10 (283.15 K)): 2.31E+06 | kon (AV, pH 9, 10 (283.15 K), k (scaled)): 2.3e+06 M⁻¹ s⁻¹ | ln(k) (AV, pH 9, 15 (288.15 K)): 15.0 | k(average) (AV, pH 9, 15 (288.15 K)): 3.36E+06 | kon (AV, pH 9, 15 (288.15 K), k (scaled)): 3.4e+06 M⁻¹ s⁻¹ | ln(k) (AV, pH 9, 20 (293.15 K)): 15.5

— PMC6394990, “Detailed characterization of the solution kinetics and thermodynamics of biotin, biocytin and HABA binding to avidin and streptavidin” (PLoS ONE, 2019)
